The text below walks through data of the OligoGym collection.

The target in this data set is IRF4. Conditions: ASO.

“And” between values parts separate entries of the source, which are not always exact repeats. Equal entries are not always repeated. After the bases stand the sugars from the 5' end (letter, count) and the backbone: PS all phosphorothioate, else s phosphorothioate and o phosphodiester by linkage. Methylation of C is not given here. e = 2'-O-(2-methoxyethyl) (MOE); k = constrained ethyl (cEt); d = 2'-deoxy (DNA)

Regarding GTCAACATACACATAG (sugars k3 d10 k3, PS), where the note is “SK-MEL-28, 4 µM”, the target mRNA inhibition came out at 58%.

As to CTTTAGCCCATGCTCC (sugars k3 d10 k3, PS), where the note is “SK-MEL-28, 4 µM”, the target mRNA inhibition was 20%.

With GCTGATAATTAATCTG (sugars k3 d10 k3, PS), the target mRNA inhibition (MM.1R, 1 µM) is -9%.

Regarding AAACAGTGCCCAAGCC (sugars k3 d10 k3, PS), where the note is “SK-MEL-28, 4 µM”, the target mRNA inhibition was found to be 25%.

In the case of GTCCATGGGAGATCCG (sugars k3 d10 k3, PS), for the setting “SK-MEL-28, 4 µM”, the target mRNA inhibition worked out at 52%.

In the case of TCAATAATCTCCCAGC (sugars k3 d10 k3, PS), the target mRNA inhibition (SK-MEL-28, 4 µM) stood at 55%.

Take “AGCATTTTATCATCCG (sugars kkkdddddddddkeke, PS)”: the target mRNA inhibition (MM.1R, 1 µM) stood at 42%.

For the sequence CAGCACCGTGTGGAAA (sugars k3 d10 k3, PS), under “SK-MEL-28, 4 µM”, the target mRNA inhibition was found to be 51%.

With ACTGCTTGAGGTTTTC (sugars k3 d10 k3, PS), the target mRNA inhibition (SK-MEL-28, 4 µM) turned out to be 58%.

With ACCAAATTCCCGGAGG (sugars k3 d10 k3, PS), under “SK-MEL-28, 4 µM”, the target mRNA inhibition was 7%.

For the sequence GAAAGGAGGTAGTGGC (sugars k3 d10 k3, PS), the target mRNA inhibition (SK-MEL-28, 4 µM) was found to be 23%.

In the case of ACGCTTGCAGCTCTGA (sugars k3 d10 k3, PS), the target mRNA inhibition (SK-MEL-28, 4 µM) came to 48%.

In the case of AAATAGCATCAGAGCT (sugars k3 d10 k3, PS), the target mRNA inhibition (SK-MEL-28, 4 µM) amounted to 13%.

In the case of GTCTCTCACGCAGTGC (sugars k3 d10 k3, PS), the target mRNA inhibition (SK-MEL-28, 4 µM) was found to be 50%.

On to AGCATCTAAGGCAAGC (sugars k3 d10 k3, PS), for which the target mRNA inhibition (SK-MEL-28, 4 µM) turned out to be 57%.

CTTCATCAGACTAAGT (sugars k3 d10 k3, PS): the target mRNA inhibition (SK-MEL-28, 4 µM) turned out to be 31%.

In the case of “TGTAGTATGAGAAACG (sugars kkkddddddddkekek, PS)”, the target mRNA inhibition (MM.1R, 1 µM) was found to be 23%.

As to GGCTCTGCAAACGACA (sugars k3 d10 k3, PS), the target mRNA inhibition (MM.1R, 1 µM) is 0%.

Take TTCTACAAGGTCTGAG (sugars k3 d10 k3, PS): the target mRNA inhibition (SK-MEL-28, 4 µM) came out at 47%.

In the case of GTCACAAAGCAATTGA (sugars k3 d10 k3, PS), the target mRNA inhibition (SK-MEL-28, 4 µM) came out at 67%.

Take “GTGTCTAAAGTCCCAT (sugars kkdddddddddekeke, PS)”: the target mRNA inhibition (MM.1R, 1 µM) was 32% and 23%.

On to CTTGTTCAAAGCGCAC (sugars k3 d10 k3, PS), for which the target mRNA inhibition (SK-MEL-28, 4 µM) was found to be 32%.

In the case of CCCGAATAGGACCCCT (sugars k3 d10 k3, PS), the target mRNA inhibition (SK-MEL-28, 4 µM) was determined as 40%.

Take CTGGCATCGAGACGGG (sugars k3 d10 k3, PS): the target mRNA inhibition (SK-MEL-28, 4 µM) came to 47%.

In the case of GGAAGCACTGGCATTG (sugars k3 d10 k3, PS), under “SK-MEL-28, 4 µM”, the target mRNA inhibition was 49%.

On to GACATATTTGCTTTGG (sugars k3 d10 k3, PS), for which the target mRNA inhibition (SK-MEL-28, 4 µM) amounted to 58%.

In the case of GCCAAGTTGAAGACAC (sugars k3 d10 k3, PS), the target mRNA inhibition (SK-MEL-28, 4 µM) came to 57%.

For TCCATAGATCAACATG (sugars k3 d10 k3, PS), the target mRNA inhibition (SK-MEL-28, 4 µM) came to 45%.

GGTCTGAGTTGTACAG (sugars k3 d10 k3, PS): under “MM.1R, 1 µM”, the target mRNA inhibition stood at 20%.

Consider “AGGCACATCAATGTTT (sugars k2 d9 e3 k2, PS)”, for which the target mRNA inhibition (MM.1R, 1 µM) is 36% and 43%.

Regarding “TGGTTGGCTGGTCTTT (sugars kkdddddddddkdkdk, PS)”, the target mRNA inhibition (MM.1R, 1 µM) turned out to be 51%.

Consider ACTATTAAGAACTTGC (sugars k3 d10 k3, PS), for which the target mRNA inhibition (SK-MEL-28, 4 µM) amounted to 21%.

Take ACGAAAACAGCCGCCG (sugars k3 d10 k3, PS): the target mRNA inhibition (SK-MEL-28, 4 µM) worked out at 14%.

For CAAAAGTACCACAGGG (sugars k3 d10 k3, PS), the target mRNA inhibition (SK-MEL-28, 4 µM) came out at 40%.

“GTGTCTAAAGTCCCAT (sugars kkdddddddddkdkdk, PS)”: under “MM.1R, 1 µM”, the target mRNA inhibition was 20% and 5%.

As for GCTACGCAATCTTCTG (sugars k3 d10 k3, PS), the target mRNA inhibition (SK-MEL-28, 4 µM) was 58%.

On to CAAACTATAATTGGCA (sugars k3 d10 k3, PS), for which the target mRNA inhibition (SK-MEL-28, 4 µM) came out at 53%.

Turning to CACTATTCGAGAGAAA (sugars k3 d10 k3, PS), the target mRNA inhibition (MM.1R, 1 µM) came to 30%.

ACCGATGCTTCAAGAC (sugars k3 d10 k3, PS): the target mRNA inhibition (MM.1R, 1 µM) is 31% and 56%.

As for “GCAGTGATGTCAGGTT (sugars kdddddddddkekeke, PS)”, the target mRNA inhibition (MM.1R, 1 µM) was determined as 33%.

Turning to TCCCATCCAAGAGTAG (sugars k3 d10 k3, PS), the target mRNA inhibition (SK-MEL-28, 4 µM) came out at 33%.

For the sequence GAAAACAGCCGCCGGC (sugars k3 d10 k3, PS), the target mRNA inhibition (SK-MEL-28, 4 µM) came to 26%.

In the case of AGACAGAGAGTCCGAC (sugars k3 d10 k3, PS), under “SK-MEL-28, 4 µM”, the target mRNA inhibition came to 7%.

For GACTTAGTCAGAATCT (sugars k3 d10 k3, PS), the target mRNA inhibition (MM.1R, 1 µM) amounted to 10%.

With AGCCCTTACCTCGCCC (sugars k3 d10 k3, PS), the target mRNA inhibition (SK-MEL-28, 4 µM) was 25%.

For TTCTTTATGCGAAGAA (sugars k3 d10 k3, PS), under “SK-MEL-28, 4 µM”, the target mRNA inhibition amounted to 9%.

AGCTATGCTCTAGGAA (sugars k3 d10 k3, PS): the target mRNA inhibition (MM.1R, 1 µM) was 11%.

For the sequence CTGTTAGCTACAAAGA (sugars k3 d10 k3, PS), the target mRNA inhibition (SK-MEL-28, 4 µM) is 56%.

Turning to ATGACGACTTAAGCTA (sugars k3 d10 k3, PS), the target mRNA inhibition (SK-MEL-28, 4 µM) is 62%.

“GCAGTGATGTCAGGTT (sugars kddddddddddkekek, PS)”: where the note is “MM.1R, 1 µM”, the target mRNA inhibition came to 36%.
